This is an account of results in PMC6152156 (Molecules : A Journal of Synthetic Chemistry and Natural …, 2017).

Where two headings read alike, the source gives them in different places.

One assay addresses T1, AChE (Rattus norvegicus, UniProt P37136).
T1 construct: AChE was derived from the SD rat brains by homogenizing the brain with 20-fold saline solution; from tissue; host or cells: SD rat brain homogenate (supernatant after 800 x g)
The assay is described as follows: In vitro AChE inhibitory assay (Ellman's method). It counts as biochemical. The procedure:
The AChE inhibitory activity of DL0410 derivatives was assessed by determining the hydrolysis product of Acetylthiocholine iodide (ASCh) using the Ellman’s method. 5,5′-Dithiobis (2-nitrobenzoic acid) (DTNB), and the substrate ASCh were purchased from Sigma Aldrich. AChE was derived from the SD rat brains by homogenizing the brain with 20-fold saline solution, and then centrifuged at 800× g for 20 min at 4 °C. To acquire the inhibition of AChE activity, five serial dilutions of samples were measured. A Spectra Max M5 microplate reader (Molecular Devices, Sunnyvale, CA, USA) was utilized for the assay for AChE reaction system with 96-well plates in 0.05 M phosphate-buffered solution (PBS). The reaction system includes 10 μL sample, 20 μL AChE solution, 60 μL 3.75 mM ASCh, and 80 μL 0.25 mg/mL DTNB. It took 60 min at 37 °C for incubation, and the absorbance intensity of AChE reaction system was quantified at 412 nm.

A further assay deals with T2, BuChE (Homo sapiens, UniProt P06276).
T2 construct: BuChE was obtained from human plasma (purchased from Beijing Red Cross Blood Center China); tissue Beijing Red Cross Blood Center China; host or cells: human plasma, diluted 200-fold with 0.05 M PBS
Briefly: In vitro BuChE inhibitory assay (Ellman-type, human plasma). To be noted: BuChE from human plasma, BuSCh substrate, 60 min, 37 °C. Format: biochemical. Here is the method: BuChE was obtained from human plasma (purchased from Beijing Red Cross Blood Center China). Before utilization, human plasma was diluted 200-fold with 0.05 M PBS. Five serial dilutions of samples are determined to obtain BuChE inhibitory activity. The BuChE reaction system is similar to the assay above, including 10 μL samples, 40 μL diluted plasma sample, 70 μL 7.5 mM S-butyrylthiocholine (BuSCh), and 80 μL 0.25 mg/mL DTNB. After incubation at 37 °C for 60 min, the absorbance intensity of the system was measured at wavelength 412 nm.

Where [1] appears, read: AChE from SD rat brain homogenate, ASCh substrate, 60 min, 37 °C, read-out: IC50(μM) AChE.

T1 sequence (P37136 32-614): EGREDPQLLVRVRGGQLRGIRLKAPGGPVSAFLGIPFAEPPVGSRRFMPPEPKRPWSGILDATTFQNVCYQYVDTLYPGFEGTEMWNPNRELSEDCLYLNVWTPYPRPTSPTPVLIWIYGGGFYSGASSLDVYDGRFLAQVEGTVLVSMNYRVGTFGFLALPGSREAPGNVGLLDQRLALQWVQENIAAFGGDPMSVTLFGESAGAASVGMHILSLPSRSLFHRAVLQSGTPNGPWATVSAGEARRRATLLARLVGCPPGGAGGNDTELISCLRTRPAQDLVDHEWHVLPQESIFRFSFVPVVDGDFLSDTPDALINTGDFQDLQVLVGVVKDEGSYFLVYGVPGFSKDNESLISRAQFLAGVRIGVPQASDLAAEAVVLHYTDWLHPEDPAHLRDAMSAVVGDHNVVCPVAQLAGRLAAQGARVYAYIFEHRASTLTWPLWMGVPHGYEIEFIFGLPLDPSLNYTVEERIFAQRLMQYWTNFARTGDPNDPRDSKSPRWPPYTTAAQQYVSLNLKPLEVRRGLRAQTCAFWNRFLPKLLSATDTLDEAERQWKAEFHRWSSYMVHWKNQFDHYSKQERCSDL
T2 sequence (P06276 29-602): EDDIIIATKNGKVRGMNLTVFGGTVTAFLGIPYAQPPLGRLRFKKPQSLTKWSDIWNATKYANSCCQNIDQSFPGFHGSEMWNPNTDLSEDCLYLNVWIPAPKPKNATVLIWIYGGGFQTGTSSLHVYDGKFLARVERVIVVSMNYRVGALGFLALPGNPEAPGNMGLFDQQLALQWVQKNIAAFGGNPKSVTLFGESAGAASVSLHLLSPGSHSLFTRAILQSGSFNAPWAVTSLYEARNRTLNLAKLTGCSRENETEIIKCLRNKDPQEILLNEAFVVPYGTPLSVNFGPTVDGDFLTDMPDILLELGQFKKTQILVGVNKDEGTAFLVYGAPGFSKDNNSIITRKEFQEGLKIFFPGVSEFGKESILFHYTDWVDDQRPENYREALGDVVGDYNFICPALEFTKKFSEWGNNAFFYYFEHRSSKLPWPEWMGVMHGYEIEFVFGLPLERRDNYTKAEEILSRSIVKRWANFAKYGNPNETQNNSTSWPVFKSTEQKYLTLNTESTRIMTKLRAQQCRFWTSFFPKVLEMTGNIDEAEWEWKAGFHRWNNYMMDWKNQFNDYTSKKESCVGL

Regarding `O=C(CN1CCCCC1)c1ccc(CCc2ccc(C(=O)CN3CCCCC3)cc2)cc1` [Compound 2-1], the IC50 on AChE (setting [1]) was determined as 75.5 µM. Take `CC1CCN(CC(=O)c2ccc(-c3ccc(C(=O)CN4CCC(C)CC4)cc3)cc2)CC1` [Compound 1-7]: the IC50 was 36.6 µM at BuChE (read-out: IC50(μM) BuChE) and 49.1 µM on AChE (setting [1]). For `O=C(CCN1CCCCC1)c1ccc([S+]([O-])c2ccc(C(=O)CCN3CCCCC3)cc2)cc1` [Compound 5-3], in that order: above 200 µM and 14.1 µM. For `CN(C)CCC(=O)c1ccc(C(C)(C)c2ccc(C(=O)CCN(C)C)cc2)cc1` [Compound 4-1] the same measures were 6 µM and 4.89 µM.

As to `O=C(CCN1CCCCC1)c1ccc2c(c1)c1cc(C(=O)CCN3CCCCC3)ccc1n2C(=O)CCN1CCCCC1` [Compound 7-7], the half-maximal inhibitory concentration (IC50) at BuChE (read-out: IC50(μM) BuChE) turned out to be 4.79 µM; on AChE (setting [1]), 1.42 µM. As to `CN(C)CCC(=O)c1ccc(Cc2ccc(C(=O)CCN(C)C)cc2)cc1` [Compound 3-5], the results for the IC50 at BuChE (read-out: IC50(μM) BuChE) and at AChE (setting [1]) were 1.72 µM and 3.32 µM, respectively.

In the case of `CN(C)CCCCC(=O)c1ccc(CCc2ccc(C(=O)CCCCN(C)C)cc2)cc1` [Compound 2-10], the values for the 50% inhibitory concentration (IC50) at BuChE (read-out: IC50(μM) BuChE) and at AChE (setting [1]) were 2.77 µM and 3.96 µM, respectively. With `CN1CCN(CC(=O)c2ccc(Cc3ccc(C(=O)CN4CCN(C)CC4)cc3)cc2)CC1` [Compound 3-3], the figures for the IC50 on BuChE (read-out: IC50(μM) BuChE) and at AChE (setting [1]) were 40 µM and 48.5 µM, respectively.

With `O=C(CCN1CCCCC1)c1ccc(CCc2ccc(C(=O)CCN3CCCCC3)cc2)cc1` [Compound 2-3], at BuChE (read-out: IC50(μM) BuChE), the IC50 came to 3.41 µM. On to `O=C(CCN1CCCCC1)c1ccc(-c2ccc(C(=O)CN3CCCCC3)cc2)cc1` [Compound 1-6], for which the IC50 on BuChE (read-out: IC50(μM) BuChE) was 4.87 µM; at AChE (setting [1]) it was 3.32 µM. Consider `O=C(CCN1CCOCC1)c1ccc(-c2ccc(C(=O)CCN3CCOCC3)cc2)cc1` [Compound 1-15], for which the IC50 on BuChE (read-out: IC50(μM) BuChE) was below 1 µM. Turning to `O=C(CCCN1CCCCC1)c1ccc(-c2ccc(C(=O)CCN3CCCCC3)cc2)cc1` [Compound 1-5], the IC50 on BuChE (read-out: IC50(μM) BuChE) is 1.88 µM; at AChE (setting [1]) it was 0.41 µM. For `O=C(CCNC1CCCCC1)c1ccc(-c2ccc(C(=O)CCNC3CCCCC3)cc2)cc1` [Compound 1-16], the values for the half-inhibitory concentration (IC50) at BuChE (read-out: IC50(μM) BuChE) and at AChE (setting [1]) were 1.91 µM and 2.15 µM, respectively. Take `CCN(C)C(=O)Oc1ccc(-c2ccc(OC(=O)N(C)CC)cc2)cc1` [Compound 7-3]: the 50% inhibitory concentration (IC50) against BuChE (IC50(μM) BuChE) turned out to be 0.06 µM; at AChE, 34.1 µM. In the case of `CC(C)(c1ccc(C(=O)CCN2CCCCC2)cc1)c1ccc(C(=O)CCN2CCCCC2)cc1` [Compound 4-3], the figures for the IC50 at BuChE (read-out: IC50(μM) BuChE) and at AChE (setting [1]) were 3.09 µM and 3.07 µM, respectively. For `O=C(CCN1CCCCC1)c1ccc(Oc2ccc(C(=O)CCN3CCCCC3)cc2)cc1` [Compound 5-1], in that order: 5.68 µM and 0.89 µM. For `O=C(CCN1CCCCC1)c1ccc2sc3ccc(C(=O)CCN4CCCCC4)cc3c2c1` [Compound 6-2], in that order: 1.71 µM and 2.03 µM.

As for `COc1ccc2[nH]cc(CCNCC(=O)c3ccc(-c4ccc(C(=O)CNCCc5c[nH]c6ccc(OC)cc56)cc4)cc3)c2c1` [Compound 1-18], the IC50 at BuChE (read-out: IC50(μM) BuChE) is above 200 µM; on AChE (setting [1]), 9.52 µM. For `CN(C)CC(=O)c1ccc(C(C)(C)c2ccc(C(=O)CN(C)C)cc2)cc1` [Compound 4-2] the same measures were 5.95 µM and 54.4 µM. For the compound `CN(C)CCC(=O)c1ccc(-c2ccc(C(=O)CCN(C)C)cc2)cc1` [Compound 1-8], the 50% inhibitory concentration (IC50) on BuChE (read-out: IC50(μM) BuChE) is below 1 µM. As for `C=C(CN1CCCCC1)C(=O)c1ccc(-c2ccc(C(=O)C(=C)CN3CCCCC3)cc2)cc1` [Compound 7-2], the IC50 amounted to 1.55 µM at BuChE (read-out: IC50(μM) BuChE) and 17.1 µM on AChE (setting [1]). For `O=C(c1ccc(-c2ccc(C(=O)N3CCCCC3)cc2)cc1)N1CCCCC1` [Compound 1-2] the same measures were 2.22 µM and 0.84 µM. For `CC(C)(c1ccc(C(=O)CN2CCCCC2)cc1)c1ccc(C(=O)CN2CCCCC2)cc1` [Compound 4-4], in that order: 2.93 µM and 17.4 µM. For `CC(C)(c1ccc(C(=O)CCN2CCOCC2)cc1)c1ccc(C(=O)CCN2CCOCC2)cc1` [Compound 4-5], in that order: 16.3 µM and 15.7 µM.

Consider `O=C(CCN1CCCCC1)c1ccc(Sc2ccc(C(=O)CCN3CCCCC3)cc2)cc1` [Compound 5-2], for which the values for the IC50 at BuChE (read-out: IC50(μM) BuChE) and on AChE (setting [1]) were 3.44 µM and 3.89 µM, respectively.

Consider `CCN(C)C(=O)Oc1ccc(-c2ccc(C(=O)CCN3CCCCC3)cc2)cc1` [Compound 7-5], for which the results for the IC50 at BuChE (IC50(μM) BuChE) and on AChE were 0.2 µM and 3.35 µM, respectively.

For the compound `O=C(CCN1CCC(N2CCCCC2)CC1)c1ccc(-c2ccc(C(=O)CCN3CCC(N4CCCCC4)CC3)cc2)cc1` [Compound 1-19], the IC50 on BuChE (read-out: IC50(μM) BuChE) is above 200 µM; at AChE (setting [1]) it was 0.25 µM. For `CN1CCN(CCC(=O)c2ccc(Cc3ccc(C(=O)CCN4CCN(C)CC4)cc3)cc2)CC1` [Compound 3-4], in that order: 24.4 µM and 7.55 µM. For `O=C(CCN1CCCCC1)c1ccc(Cc2ccc(C(=O)CCN3CCCCC3)cc2)cc1` [Compound 3-1] the same measures were 4.2 µM and 4.11 µM. Regarding `O=C(CCN1CCOCC1)c1ccc(Cc2ccc(C(=O)CCN3CCOCC3)cc2)cc1` [Compound 3-2], the IC50 on BuChE (read-out: IC50(μM) BuChE) came to 7.65 µM; on AChE (setting [1]), 7.09 µM. With `O=C(CCCCN1CCC1)c1ccc(CCc2ccc(C(=O)CCCCN3CCC3)cc2)cc1` [Compound 2-6], the results for the IC50 at BuChE (read-out: IC50(μM) BuChE) and at AChE (setting [1]) were above 200 µM and 12.2 µM, respectively. For `O=C(COCCN1CCCCC1)c1ccc(-c2ccc(C(=O)OCCN3CCCCC3)cc2)cc1` [Compound 7-4] the same measures were above 200 µM and 18.5 µM. For `CN(CCC(=O)c1ccc(-c2ccc(C(=O)CCN(C)Cc3ccccc3)cc2)cc1)Cc1ccccc1` [Compound 1-17] the same measures were 6.56 µM and 3.33 µM.

In the case of `CCN(CC)CCC(=O)c1ccc(-c2ccc(C(=O)CCN(CC)CC)cc2)cc1` [Compound 1-9], at BuChE (read-out: IC50(μM) BuChE), the IC50 was below 1 µM.
